Laboratory results: patent US20240034731A1, “AZA-QUINAZOLINE COMPOUNDS AND METHODS OF USE” (Iambic Therapeutics, Inc., priority 2022, published 2024)

Key:
[1] = target: CDK1/Cyclin B1 (Homo sapiens (Human), UniProt P06493); assay: CDK1/Cyclin B1 ADP-Glo Kinase Assay; assay type: biochemical; settings: ADP-Glo, 80 uM ATP; read-out: CDK1 Cyclin B1 IC50
Summary of the method: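 Enzyme and inhibitor pre-incubated 30 min at room temperature before ATP/substrate addition; reaction run 90 min at room temperature. ADP formed measured by ADP-Glo luminescence; IC50 from a 4-parameter fit of fractional velocity versus inhibitor concentration.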

[2] = target: CDK2/Cyclin E1 (Homo sapiens (Human), UniProt P24941); assay: CDK2/Cyclin E1 Full length ADP-Glo Kinase Assay; assay type: biochemical; settings: 20 uM ATP, read-out: CDK2/ CyclinE1 IC50
Summary of the method: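 Full-length human CDK2/cyclin E1 was preincubated 30 min at room temperature with inhibitor, then reacted 90 min with ATP-containing substrate solution. ADP formed was measured by ADP-Glo luminescence; IC50 from 4-parameter fit of fractional velocity versus inhibitor concentration.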

[3] = target: CDK4/Cyclin D1 (Homo sapiens (Human), UniProt P11802); assay: CDK4/Cyclin D1 CHEF Assay (AQT0258 peptide); assay type: biochemical; settings: 200 uM ATP, read-out: CDK4/ CyclinD1 AQT IC50
Summary of the method: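 Sox-labelled peptide AQT0258 phosphorylation read as chelation-enhanced fluorescence (ex 360/em 485 nm) with Mg(II). Enzyme preincubated with inhibitor 30 min at 22°C, substrate added, 3 h at 22°C; IC50 from four-parameter fit of fractional velocity versus inhibitor concentration.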

[4] = target: CDK6/Cyclin D3 (Homo sapiens (Human), UniProt Q00534); assay: CDK6/Cyclin D3 ADP-Glo Kinase Assay; assay type: biochemical; settings: 100 uM ATP, read-out: CDK6/ CyclinD3 IC50
Summary of the method: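 Enzyme and inhibitor were pre-incubated for 30 min at room temperature before ATP/substrate was added. The kinase reaction ran 90 min at room temperature, and ADP formed was detected by ADP-Glo luminescence. IC50 was fitted with a 4-parameter equation to fractional velocity versus inhibitor concentration.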

[5] = test system: MCF-7 cells; assay: Cell Growth Inhibition, MCF-7 (CellTiterGlo, 6 days); assay type: cell-based; settings: Homo sapiens, MCF7, 144 h, MCF-7, 6-day treatment
Summary of the method: (§1)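 MCF-7 (ER+ breast adenocarcinoma) or CCNE1-amplified OVCAR-3 cells, 500/well in RPMI with 10% FBS, treated with half-log dilutions typically 10-10,000 nM for 6 days at 37 °C. CellTiterGlo 2.0 luminescence gave % growth inhibition versus control; IC50 by four-parameter variable-slope fit.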

[6] = test system: OVCAR-3 cells; assay: Cell Growth Inhibition, OVCAR-3 (CellTiterGlo, 6 days); assay type: cell-based; settings: Homo sapiens, 144 h, OVCAR-3, 6-day treatment
Summary of the method: as §1

Chain of CDK4/Cyclin D1 (P11802 whole entry): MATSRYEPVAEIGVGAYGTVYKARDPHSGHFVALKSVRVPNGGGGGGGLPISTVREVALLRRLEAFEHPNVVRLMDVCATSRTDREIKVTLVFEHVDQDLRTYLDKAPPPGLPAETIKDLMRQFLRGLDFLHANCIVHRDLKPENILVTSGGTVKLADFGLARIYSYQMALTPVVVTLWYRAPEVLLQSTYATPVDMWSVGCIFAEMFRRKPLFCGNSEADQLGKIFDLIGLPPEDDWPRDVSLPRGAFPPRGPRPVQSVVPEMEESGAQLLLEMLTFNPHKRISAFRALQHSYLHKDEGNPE
Chain of CDK4/Cyclin D1 (P24385 whole entry partner): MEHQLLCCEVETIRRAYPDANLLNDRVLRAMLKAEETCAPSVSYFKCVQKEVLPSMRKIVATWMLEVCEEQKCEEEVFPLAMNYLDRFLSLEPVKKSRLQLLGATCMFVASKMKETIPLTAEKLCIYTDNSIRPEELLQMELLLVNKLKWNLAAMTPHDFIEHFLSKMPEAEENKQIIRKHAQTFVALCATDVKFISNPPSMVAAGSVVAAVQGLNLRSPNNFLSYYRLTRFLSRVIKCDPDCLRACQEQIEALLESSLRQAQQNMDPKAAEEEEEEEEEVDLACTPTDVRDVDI
Chain of CDK6/Cyclin D3 (Q00534 whole entry): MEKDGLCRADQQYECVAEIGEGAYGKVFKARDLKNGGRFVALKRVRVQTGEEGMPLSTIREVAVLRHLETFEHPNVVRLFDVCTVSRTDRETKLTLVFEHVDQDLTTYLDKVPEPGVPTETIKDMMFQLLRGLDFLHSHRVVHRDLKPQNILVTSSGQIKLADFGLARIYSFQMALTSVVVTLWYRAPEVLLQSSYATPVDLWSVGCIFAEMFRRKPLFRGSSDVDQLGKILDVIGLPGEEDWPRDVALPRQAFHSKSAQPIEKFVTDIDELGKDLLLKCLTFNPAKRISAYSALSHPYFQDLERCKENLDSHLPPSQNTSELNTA
Chain of CDK6/Cyclin D3 (P30281 whole entry partner): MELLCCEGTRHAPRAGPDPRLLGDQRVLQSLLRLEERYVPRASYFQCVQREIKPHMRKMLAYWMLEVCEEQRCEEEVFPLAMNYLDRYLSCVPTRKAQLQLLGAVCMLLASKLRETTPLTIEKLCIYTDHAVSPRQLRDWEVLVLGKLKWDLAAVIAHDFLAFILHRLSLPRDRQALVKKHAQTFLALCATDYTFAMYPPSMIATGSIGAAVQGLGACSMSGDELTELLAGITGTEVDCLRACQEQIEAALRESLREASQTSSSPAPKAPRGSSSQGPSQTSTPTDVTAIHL
Chain of CDK1/Cyclin B1 (P06493 whole entry): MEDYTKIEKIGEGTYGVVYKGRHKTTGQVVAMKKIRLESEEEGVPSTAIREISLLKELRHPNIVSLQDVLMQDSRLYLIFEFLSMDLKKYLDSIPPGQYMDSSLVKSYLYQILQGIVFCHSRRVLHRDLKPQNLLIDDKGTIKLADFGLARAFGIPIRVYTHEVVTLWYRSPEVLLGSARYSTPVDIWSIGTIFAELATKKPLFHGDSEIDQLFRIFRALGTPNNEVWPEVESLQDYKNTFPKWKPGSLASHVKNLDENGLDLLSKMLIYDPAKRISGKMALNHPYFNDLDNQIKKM
Chain of CDK1/Cyclin B1 (P14635 whole entry partner): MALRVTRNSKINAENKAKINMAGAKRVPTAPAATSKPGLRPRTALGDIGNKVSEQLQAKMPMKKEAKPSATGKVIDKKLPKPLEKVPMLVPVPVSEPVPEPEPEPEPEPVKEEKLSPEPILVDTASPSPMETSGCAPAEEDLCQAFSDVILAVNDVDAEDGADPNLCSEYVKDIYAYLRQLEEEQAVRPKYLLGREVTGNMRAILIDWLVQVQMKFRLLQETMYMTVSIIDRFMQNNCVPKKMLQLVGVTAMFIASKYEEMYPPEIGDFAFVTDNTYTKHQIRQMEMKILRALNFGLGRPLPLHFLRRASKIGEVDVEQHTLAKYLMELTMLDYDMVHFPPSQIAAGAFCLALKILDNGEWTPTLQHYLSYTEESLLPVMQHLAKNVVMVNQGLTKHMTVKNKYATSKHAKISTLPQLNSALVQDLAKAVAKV

| Structure (SMILES) | IC50 [1] [nM] | IC50 [2] [nM] | IC50 [3] [nM] | IC50 [4] [nM] | IC50 [5] [nM] | IC50 [6] [nM] |
| --- | --- | --- | --- | --- | --- | --- |
| CS(=O)(=O)N1CCC(Nc2ncc3cc(C(F)F)nc(N4CC5(CNCCC5(F)F)C4)c3n2)CC1 [Compound 65, 8-(9,9-difluoro-2,6-diazaspiro[3.5]nonan-2-yl)-6-(difluoromethyl)-N-(1-(methylsulfonyl)piperidin-4-yl)pyrido[3,4-d]pyrimidin-2-amine] | < 200 | < 200 | < 200 | < 200 | 200 to 500 | 200 to 500 |
| Cc1cc2cnc(NC3CCN(S(=O)(=O)C4CC4)CC3)nc2c(N2CC3(CC(O)C3)C2)n1 [Compound 66, 2-(2-((1-(cyclopropylsulfonyl)piperidin-4-yl)amino)-6-methylpyrido[3,4-d]pyrimidin-8-yl)-2-azaspiro[3.3]heptan-6-ol] | 500 to 2000 | < 200 | < 200 | < 200 | 500 to 2000 | 500 to 2000 |
| Cc1cc2cnc(NC3CCN(S(=O)(=O)CCC4(C)CC4)CC3)nc2c(N2CC(F)(F)C3(CNC3)C2)n1 [Compound 67, 8-(8,8-difluoro-2,6-diazaspiro[3.4]octan-6-yl)-6-methyl-N-(1-((2-(1-methylcyclopropyl)ethyl)sulfonyl)piperidin-4-yl)pyrido[3,4-d]pyrimidin-2-amine] | 200 to 500 | < 200 | < 200 | 200 to 500 | > 2000 | > 2000 |
| CS(=O)(=O)N1CCC(Nc2ncc3cc(C4CC4)nc(C4CC5(CNCCO5)C4)c3n2)CC1 (stereo not drawn) [Compound 70, 6-cyclopropyl-N-(1-(methylsulfonyl)piperidin-4-yl)-8-(5-oxa-8-azaspiro[3.5]nonan-2-yl)pyrido[3,4-d]pyrimidin-2-amine] | < 200 | < 200 | < 200 | < 200 | 500 to 2000 | 500 to 2000 |
| COC1CC2(C1)CN(c1nc(C)cc3cnc(NC4CCN(S(=O)(=O)C5CC5)CC4)nc13)C2 [Compound 71, N-(1-(cyclopropylsulfonyl)piperidin-4-yl)-8-(6-methoxy-2-azaspiro[3.3]heptan-2-yl)-6-methylpyrido[3,4-d]pyrimidin-2-amine] | 200 to 500 | < 200 | < 200 | < 200 | > 2000 | > 2000 |
| Cc1cc2cnc(NC3CCN(S(=O)(=O)C4CC4)CC3)nc2c(N2CC(N3CC(F)C3)C2)n1 [Compound 72, N-(1-(cyclopropylsulfonyl)piperidin-4-yl)-8-(3-fluoro-[1,3′-biazetidin]-l′-yl)-6-methylpyrido[3,4-d]pyrimidin-2-amine] | 500 to 2000 | < 200 | 200 to 500 | 200 to 500 | > 2000 | > 2000 |
| Cc1cc2cnc(NC3CCN(S(C)(=O)=O)CC3)nc2c(N2CC3(CC(O)C3)C2)n1 [Compound 73, 2-(6-methyl-2-((1-(methylsulfonyl)piperidin-4-yl)amino)pyrido[3,4-d]pyrimidin-8-yl)-2-azaspiro[3.3]heptan-6-ol] | 500 to 2000 | < 200 | < 200 | 200 to 500 | > 2000 | > 2000 |
| Cc1cc2cnc(NC3CCN(S(=O)(=O)C4CC4)CC3)nc2c(N2CC(CS(C)(=O)=O)C2)n1 [Compound 74, N-(1-(cyclopropylsulfonyl)piperidin-4-yl)-6-methyl-8-(3-((methylsulfonyl)methyl)azetidin-1-yl)pyrido[3,4-d]pyrimidin-2-amine] | 500 to 2000 | < 200 | 200 to 500 | 200 to 500 | > 2000 | > 2000 |
| COC1CC2(C1)CN(c1nc(C3CC3)cc3cnc(NC4CCN(S(C)(=O)=O)CC4)nc13)C2 [Compound 75, 6-cyclopropyl-8-(6-methoxy-2-azaspiro[3.3]heptan-2-yl)-N-(1-(methylsulfonyl)piperidin-4-yl)pyrido[3,4-d]pyrimidin-2-amine] | > 2000 | < 200 | < 200 | < 200 | > 2000 | > 2000 |
| COC1CC2(C1)CN(c1nc(C)cc3cnc(NC4CCN(S(C)(=O)=O)CC4)nc13)C2 [Compound 76, 8-(6-methoxy-2-azaspiro[3.3]heptan-2-yl)-6-methyl-N-(1-(methylsulfonyl)piperidin-4-yl)pyrido[3,4-d]pyrimidin-2-amine] | 200 to 500 | < 200 | < 200 | < 200 | 500 to 2000 | > 2000 |
| Cc1cc2cnc(NC3CCN(S(C)(=O)=O)CC3)nc2c(N2CC3(CCC(=O)N3)C2)n1 [Compound 77, 2-(6-methyl-2-((1-(methylsulfonyl)piperidin-4-yl)amino)pyrido[3,4-d]pyrimidin-8-yl)-2,5-diazaspiro[3.4]octan-6-one] | 200 to 500 | < 200 | < 200 | < 200 | > 2000 | > 2000 |
| Cc1cc2cnc(NC3CCN(S(=O)(=O)C4CC4)CC3)nc2c(N2CC3(C2)CC(C)(O)C3)n1 [Compound 78, 2-(2-((1-(cyclopropylsulfonyl)piperidin-4-yl)amino)-6-methylpyrido[3,4-d]pyrimidin-8-yl)-6-methyl-2-azaspiro[3.3]heptan-6-ol] | 200 to 500 | < 200 | < 200 | 200 to 500 | 500 to 2000 | 500 to 2000 |
| Cc1cc2cnc(NC3CCN(S(C)(=O)=O)CC3)nc2c(N2CC3(C2)CC(C)(O)C3)n1 [Compound 79, 6-methyl-2-(6-methyl-2-((1-(methylsulfonyl)piperidin-4-yl)amino)pyrido[3,4-d]pyrimidin-8-yl)-2-azaspiro[3.3]heptan-6-ol] | 200 to 500 | < 200 | < 200 | 200 to 500 | > 2000 | 500 to 2000 |
| COCCN1CC2(CC(c3nc(C4CC4)cc4cnc(NC5CCN(S(=O)(=O)CC6CCC6)CC5)nc34)C2)C1 [Compound 80, N-(1-((cyclobutylmethyl)sulfonyl)piperidin-4-yl)-6-cyclopropyl-8-(2-(2-methoxyethyl)-2-azaspiro[3.3]heptan-6-yl)pyrido[3,4-d]pyrimidin-2-amine] | 500 to 2000 | < 200 | < 200 | < 200 | > 2000 | > 2000 |
| Cc1cc2cnc(Nc3ccc(CS(C)(=O)=O)cc3)nc2c(N2CC(O)(C3CC3)C2)n1 [Compound 83, 3-cyclopropyl-1-(6-methyl-2-((4-((methylsulfonyl)methyl)phenyl)amino)pyrido[3,4-d]pyrimidin-8-yl)azetidin-3-ol] | 200 to 500 | < 200 | < 200 | < 200 | > 2000 | > 2000 |
| Cc1cc2cnc(NC3CCN(S(C)(=O)=O)CC3)nc2c(C2CC3(C2)CN(C)CCO3)n1 (stereo not drawn) [Compound 84, 6-methyl-8-(8-methyl-5-oxa-8-azaspiro[3.5]nonan-2-yl)-N-(1-(methylsulfonyl)piperidin-4-yl)pyrido[3,4-d]pyrimidin-2-amine] | 200 to 500 | < 200 | < 200 | < 200 | 500 to 2000 | 500 to 2000 |
| Cc1cc2cnc(NC3CCN(S(C)(=O)=O)CC3)nc2c(N2CC3(CNCC3(F)F)C2)n1 [Compound 85, 8-(8,8-difluoro-2,6-diazaspiro[3.4]octan-2-yl)-6-methyl-N-(1-(methylsulfonyl)piperidin-4-yl)pyrido[3,4-d]pyrimidin-2-amine] | < 200 | < 200 | < 200 | < 200 | 500 to 2000 | 500 to 2000 |
| Cc1cc2cnc(N[C@@H]3CCOC[C@H]3O)nc2c(N2CC(O)(C3CC3)C2)n1 [Compound 86, 3-cyclopropyl-1-(2-(((3S,4R)-3-hydroxytetrahydro-2H-pyran-4-yl)amino)-6-methylpyrido[3,4-d]pyrimidin-8-yl)azetidin-3-ol] | > 2000 | 200 to 500 | < 200 | 200 to 500 | > 2000 | > 2000 |
| Cc1cc2cnc(NC3CCN(S(=O)(=O)c4cnn(C)c4)CC3)nc2c(N2CC3(CCNCC3(F)F)C2)n1 [Compound 87, 8-(5,5-difluoro-2,7-diazaspiro[3.5]nonan-2-yl)-6-methyl-N-(1-((1-methyl-1H-pyrazol-4-yl)sulfonyl)piperidin-4-yl)pyrido[3,4-d]pyrimidin-2-amine] | < 200 | < 200 | < 200 | < 200 | 500 to 2000 | 200 to 500 |
